Values of other authors as cited in patent US20080153832A1, “PAN-ALPHA-2 RECEPTOR AGONIST AND RELAXANT COMPOSITIONS FOR TREATING GASTROINTESTINAL MOTILITY DISORDERS” (Allergan, Inc., priority 2006, published 2008).

## CN(C)[C@@H](CCOc1cccc2ccccc12)c1ccccc1 [Dapoxetine]
  time to maximum serum concentration: about 1 hour
